From PMC12494546, “Structural basis of heme scavenging by the ChtA and HtaA hemophores in Corynebacterium diphtheriae” (The Journal of Biological Chemistry, 2025)

Experiments:
HtaB^CR = target: T1, HtaB^CR (Corynebacterium diphtheriae, UniProt Q6NIY7); assay: Hemin partitioning between pairs of CR domains at equilibrium measured by native nano-ESI-MS in 50 mM ammonium acetate pH 6.9 at 24 °C, with Krel converted to KD using the ITC KD of ChtA^CR as reference.; assay type: binding; conditions: read-out: estimated KD values for hemin
T1 construct: gene DIP0629; CR domain, HtaB residues 30-273; N-terminal SUMO/6xHis tag removed by ULP1
T1 sequence (Q6NIY7 entry or part of it): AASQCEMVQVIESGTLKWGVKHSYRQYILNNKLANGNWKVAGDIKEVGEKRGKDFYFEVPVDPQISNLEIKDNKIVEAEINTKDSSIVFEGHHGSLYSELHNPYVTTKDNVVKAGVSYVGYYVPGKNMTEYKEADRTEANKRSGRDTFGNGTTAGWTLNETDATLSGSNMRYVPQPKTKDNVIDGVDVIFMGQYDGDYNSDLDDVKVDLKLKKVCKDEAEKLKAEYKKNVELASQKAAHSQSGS
Source text: (§1) The C. diphtheriae hemin-uptake system contains six CR domains that are located at distinct sites outside the cell (Fig. 1). […] Together, they represent nearly the full complement of C. diphtheriae’s CR domains (only the domains from ChtB and ChtC are missing, but they are expected to have similar binding properties as their paralogs, HtaB and ChtA, respectively). […] Similar measurements were made for the following protein pairs: HtaA^CR2/HtaB^CR, HtaA^CR1/HtaB^CR, HtaA^CR2/HtaA^CR1, ChtA^CR/HtaA^CR2, and ChtA^CR/HtaB^CR (Table S4).
(§2) nESI-MS was used for ligand (heme)-competition experiments between CR domain pairs to determine their relative heme dissociation constant Krelative (Krel) ([37], [56]). In this approach, two different CR domains (e.g. a >90% heme-loaded “heme donor” and a <10% heme-loaded “heme acceptor” CR domain) are mixed and allowed to come to equilibrium (>6 h, 24 °C). The resulting mixture is then analyzed by nESI-MS, where the apo- and holo-abundance of each CR domain is determined from the sum peak intensity from each of their charge states as described previously ([37]). The relative affinity between the CR pair tested can be determined by their nESI-MS abundances according to Equation 1, which is derived from the ratio of each CR’s KD for heme. Importantly, this analysis is independent of [heme] and Krel should be consistent across different concentrations of [heme donor] and [heme acceptor]; thus, we used at least three different holo-donor and apo-acceptor stoichiometry ratios to determine each Krel reported in Table S4.(eq. 1) KRelative=[CR^hemeacceptor][CR^hemedonor·heme]/[CR^hemedonor][CR^hemeacceptor·heme]=Ab(CR^hemeacceptor)Ab(CR^hemedonor·heme)/Ab(CR^hemedonor)Ab(CR^hemeacceptor·heme)
(§3) For nESI-MS heme-competition experiments, CR domains were first buffer-exchanged into 50 mM ammonium acetate (pH 6.9) using dialysis or gel filtration and protein concentration was determined by bicinchoninic acid assay or UV-visible absorbance at 280 nm. […]

HtaA^CR1 = target: T2, HtaA^CR1 (Corynebacterium diphtheriae, UniProt Q6NIZ1); assay: as above; assay type: binding; conditions: read-out: estimated KD values for hemin
T2 construct: gene DIP0625; N-terminal CR domain CR1, HtaA residues 36-221 (methods; S37-G214 in results); N-terminal SUMO/6xHis tag removed by ULP1
T2 sequence (Q6NIZ1 entry or part of it): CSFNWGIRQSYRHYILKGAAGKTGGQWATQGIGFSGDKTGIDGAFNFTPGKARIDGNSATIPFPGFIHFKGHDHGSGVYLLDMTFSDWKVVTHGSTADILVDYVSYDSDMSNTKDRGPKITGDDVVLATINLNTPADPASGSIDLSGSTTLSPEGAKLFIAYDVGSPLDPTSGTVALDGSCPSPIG
Source text: as §1, §2, §3

HtaA^CR2 = target: T3, HtaA^CR2 (Corynebacterium diphtheriae, UniProt Q6NIZ1); assay: as above; assay type: binding; conditions: read-out: estimated KD values for hemin
T3 construct: gene DIP0625; C-terminal CR domain CR2, HtaA residues 344-506 (G344-G506); N-terminal SUMO/6xHis tag removed by ULP1
T3 sequence (Q6NIZ1 entry or part of it): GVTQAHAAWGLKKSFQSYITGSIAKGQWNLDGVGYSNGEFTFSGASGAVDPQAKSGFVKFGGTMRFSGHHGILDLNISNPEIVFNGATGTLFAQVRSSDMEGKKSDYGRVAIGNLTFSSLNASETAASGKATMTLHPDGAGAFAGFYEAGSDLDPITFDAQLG
Source text: as §1, §2, §3

Y178A = target: T4, Y178A (Corynebacterium diphtheriae, UniProt Q6NGJ3, Y178A); assay: Isothermal titration calorimetry with apo-protein injected into hemin chloride at 25 °C in 50 mM Tris-HCl pH 8.0, 200 mM NaCl, 5% DMSO, fitted to a one-site binding model.; conditions: SEM, n = 3
T4 construct: gene DIP1520; CR domain, ChtA residues 112-291; N-terminal SUMO/6xHis tag removed by ULP1; apo-form
T4 sequence (Q6NGJ3 112-291 Y178A): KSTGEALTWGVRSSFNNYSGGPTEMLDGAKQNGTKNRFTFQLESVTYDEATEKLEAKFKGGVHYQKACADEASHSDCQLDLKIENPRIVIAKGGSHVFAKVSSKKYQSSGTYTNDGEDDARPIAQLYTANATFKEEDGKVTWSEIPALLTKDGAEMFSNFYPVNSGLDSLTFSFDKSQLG
Source text: (§4) Isothermal titration calorimetry
(§5) Protein samples were equilibrated in titration buffer supplemented with 5% (v/v) DMSO. […] Binding isotherms were fit to a one-site binding model using the program ORIGIN ([91]).

K177G = target: T5, K177G (Corynebacterium diphtheriae, UniProt Q6NGJ3, K177G); assay: as above; conditions: SEM, n = 3
T5 construct: gene DIP1520; CR domain, ChtA residues 112-291; N-terminal SUMO/6xHis tag removed by ULP1; apo-form
T5 sequence (Q6NGJ3 112-291 K177G): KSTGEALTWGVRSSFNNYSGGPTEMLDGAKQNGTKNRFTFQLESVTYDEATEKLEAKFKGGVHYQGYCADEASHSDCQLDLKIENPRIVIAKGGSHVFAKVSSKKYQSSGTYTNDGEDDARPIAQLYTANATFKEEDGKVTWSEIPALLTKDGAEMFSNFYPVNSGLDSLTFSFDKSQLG
Source text: as §4, §5

ChtA^CR (WT) = target: T6, ChtA^CR (WT) (Corynebacterium diphtheriae, UniProt Q6NGJ3); assay: as above; conditions: SEM, n = 3
T6 construct: gene DIP1520; CR domain, ChtA residues 112-291 (K112-G291); N-terminal SUMO/6xHis tag removed by ULP1; apo-form
T6 sequence (Q6NGJ3 entry or part of it): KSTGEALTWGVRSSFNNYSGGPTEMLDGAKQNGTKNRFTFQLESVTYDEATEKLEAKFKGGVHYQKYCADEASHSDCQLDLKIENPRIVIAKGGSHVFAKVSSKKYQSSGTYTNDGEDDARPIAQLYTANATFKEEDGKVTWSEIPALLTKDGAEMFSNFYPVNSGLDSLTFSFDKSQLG
Source text: as §4, §5

Y178H = target: T7, Y178H (Corynebacterium diphtheriae, UniProt Q6NGJ3, Y178H); assay: as above; conditions: SEM, n = 3
T7 construct: gene DIP1520; CR domain, ChtA residues 112-291; N-terminal SUMO/6xHis tag removed by ULP1; apo-form
Source text: as §4, §5

K177G + Y178H = target: T8, K177G + Y178H (Corynebacterium diphtheriae, UniProt Q6NGJ3, K177G/Y178H); assay: as above; conditions: SEM, n = 3
T8 construct: gene DIP1520; CR domain, ChtA residues 112-291; N-terminal SUMO/6xHis tag removed by ULP1; apo-form
Source text: as §4, §5

Y129A = target: T9, Y129A (Corynebacterium diphtheriae, UniProt Q6NGJ3, Y129A); assay: as above; conditions: n = 3
T9 construct: gene DIP1520; CR domain, ChtA residues 112-291; N-terminal SUMO/6xHis tag removed by ULP1; apo-form
Source text: as §4, §5

C=CC1=C(C)c2cc3[nH]c(cc4nc(cc5[nH]c(cc1n2)c(C)c5CCC(=O)O)C(CCC(=O)O)=C4C)c(C)c3C=C.[Fe+3] [hemin, ferric heme (iron(III)-protoporphyrin IX; used as hemin chloride)]
Kd (HtaB^CR): 5.4 nM
Kd (HtaA^CR1): 1.1 nM
Kd (HtaA^CR2): 0.85 nM
Kd (Y178A): 46.6 ± 9.6 nM
Kd (K177G): 23.6 ± 0.8 nM
Kd (ChtA^CR (WT)): 22.4 ± 5.3 nM
Kd (Y178H): 54.8 ± 1.9 nM
Kd (K177G + Y178H): 27.1 ± 9 nM
Kd (Y129A): > 500 nM
